{"source": "patent US6841376B2", "about": "“Bistable genetic toggle switch” (Cellicon Technologies, Inc., priority 1998, dated 2005)", "molecules": {"B1": {"name": "E. coli LexA repressor protein: E. coli repressor protein that represses transcription at operator site Olex (protein, UniProt P0A7C2 1-202, looked up)", "LexA repressor": "MKALTARQQEVFDLIRDHISQTGMPPTRAEIAQRLGFRSPNAAEEHLKALARKGVIEIVSGASRGIRLLQEEEEGLPLVGRVAAGEPLLAQQHIEGHYQVDPSLFKPNADFLLRVSGMSMKDIGIMDGDLLAVHKTQDVRNGQVVVARIDDEVTVKRLKKQGNKVELLPENSEFKPIVVDLRQQSFTIEGLAVGVIRNGDWL"}}, "key": {"GFPmut3 expression [1]": {"test_system": "GFPmut3 expression", "assay": "Demonstration of bistability of toggle and control plasmids", "type": "cell-based, E. coli strain JM2.300", "conditions": "for GFP EXPRESSION (bistable or monostable behaviour): Toggles, Type IV plasmids; for bistability: Type IV toggle plasmids with RBS1 sequences of varying efficiency", "from_the_text": "In order to test the limits of bistability of the toggle switch, the al parameter was varied experimentally by inserting RBS1 sequences of varying efficiency into pTAK (Class 1) and pIKE (Class 2) toggle switches of Type IV. Four pTAK series plasmids (Class 1) were constructed with RBS1 sequences D,F,G and H, and two pIKE series plasmids (Class 2) were constructed with RBS1 sequences A and C (Table 6).\nThe existence of bistability is illustrated in FIG. 12. In this experiment, the toggle and control plasmids were grown in E. coli strain JM2.300 for 23.5 hours. At 6, 11, 18 and 23.5 hours, samples were taken and cells were pelleted, washed once in LB or PBS, and diluted 500-1000 fold into fresh medium with or without inducers as appropriate. […] Cells were washed and diluted into fresh medium with no IPTG and grown an additional 5 hours. […] Cells were diluted into fresh medium and induced at 42° C. (pTAK plasmids only—FIG. 12A) or grown in the presence of 500 ng/ml aTc (pIKE plasmids only—FIG. 12B). […] Cells were washed and diluted into fresh medium with no inducers or returned to standard temperature.\nIn this experiment, a single culture of pTAK117 cells (initially in the low state) was divided into two groups and diluted. The first group was grown in medium with no inducers (squares) while the second group was grown in medium plus 2 mM IPTG (circles). After 6 hours, cells were pelleted, washed once in LB and diluted 1000 fold into fresh medium with no inducer. Both groups of cells were grown for an additional 22 hours while taking samples and diluting into fresh medium every 6-8.5 hours."}, "GFPmut3 expression [2]": {"test_system": "GFPmut3 expression", "assay": "Switching time of toggle switch", "type": "cell-based, E. coli strain JM2.300", "procedure": "In this experiment, pTAK117 cells initially in the low state were diluted in fresh medium and induced with 2 mM IPTG. Separate cultures were grown for 35 minutes to 6 hours before pelleting, washing, and diluting the cells 500 fold in fresh medium with no inducer. Growth was continued until 10.25 hours after the start of the experiment and cells were assayed in the flow cytometer. Conversely, pTAK117 cells initially in the high state were diluted in fresh medium with no inducer. Separate cultures were grown at 41±1° C. for 35 minutes to 6 hours before diluting the cells 500 fold in fresh medium with no inducer. Growth was continued at standard temperature until 10.25 hours after the start of the experiment and cells were assayed in the flow cytometer.\nThe cell population at four time points is illustrated. As evidenced by the appearance of a bimodal distribution at 4 hours (FIG. 15C), the pTAK117 plasmid began switching to the high state between 3 and 4 hours of IPTG induction. By five hours, the switching was nearly complete. By six hours, the switching was complete (FIGS. 15A and 15C). On the other hand, switching from the high state to the low state was completed in 35 minutes or less (FIG. 15B). In this experiment, the primary determinant of switching time appears to be the rate of destruction of the expressed transcribed repressor protein. […]"}, "GFPmut3 expression [3]": {"test_system": "GFPmut3 expression", "assay": "Toggle switch induction threshold (steady-state gene expression after 17 hour IPTG induction)", "type": "cell-based, E. coli strain JM2.300", "conditions": "17 hours in 13 different concentrations of IPTG", "procedure": "This was tested experimentally. In this experiment, pTAK117 (initially in the low state) and pTAK102 (as a control) were grown in 13 different concentrations of IPTG for 17 hours, diluting twice (at 6 and 12.5 hours) into fresh medium with the same IPTG concentration. The cells were grown for this length of time in order to ensure that they reached steady-state expression levels. […] Point 1 was taken from separate experiments measuring the high state of pTAK117 with no inducer. Points 3a and 3b are the high and low modes of a bimodally distributed cell population. The bimodality occurred apparently due to natural fluctuations in gene expression and the close proximity of the toggle switch to its bifurcation point. Induction of the pTAK102 control has the familiar sigmoidal shape (triangles). […] This discontinuity is referred to as a saddle-node bifurcation."}, "GFP expression": {"test_system": "GFP expression", "assay": "Flow-cytometer assay of gene expression and promoter strength (GFP expression by plasmids)", "type": "cell-based, E. coli strain JM2.300", "conditions": "repressor expressed from Ptrc-2-E; 14,300/2.5", "procedure": "The host cell for all promoter assays and toggle switch experiments was E. coli strain JM2.300 [λ-, lacI22, rpsLl35 (StrR), thi-1] (CGSC strain 5002). JM2.300, which contains few mutations and is a fast growing strain that can tolerate enormous overexpression of plasmid-bound genes. Because JM2.300 contains no λ repressor and carries a non-functional Lac repressor (lacI22), it is considered to be a suitable host for the toggle switch.\nAll cells were grown in LB medium (Difco) with 100 μg/ml ampicillin plus inducers as indicated in the text. All Type I and pIKE series plasmids were grown at 37±1° C., unless otherwise indicated. All pTAK series plasmids were grown at 32±1° C. except during thermal induction. […]\nThe following expression data was collected using a Becton-Dickinson FACSCalibur flow cytometer with a 488 nm argon excitation laser and a 515-545 nm emission filter. […] Cells were assayed at low flow rate and fluorescence was calibrated using InSpeck Green fluorescent beads (Molecular Probes). […] All flow data were converted to ASCII format using MFI (E. Martz, University of Massachusetts, Amherst, available at http://marlin.bio.umass.edu/mcbfacs/flowcat.html\\##mfi) and analyzed with Matlab (Mathworks).\nThe strengths, in calibrated fluorescence units, of the promoter/RBS pairs used to construct the toggle switches are listed in Table 6. […]"}, "OL1-OL3": {"target": "OL1-OL3", "conditions": "λ to OL1-OL3; cited from earlier work"}, "[4]": {"test_system": "hybrid promoter: E. coli LexA operator sequence spliced into the HSV tk promoter", "conditions": "mammalian cells that synthesized the repressor; cited from earlier work"}}, "data": [{"molecule": "pIKE105: Class 2 Type IV toggle plasmid (SEQ ID NO: 16), PLtetO-1, RBS1 A, lacI and tetR", "values": [{"measurement": "GFP EXPRESSION (bistable or monostable behaviour)", "setting": "GFPmut3 expression [1]", "result": "Monostable"}, {"measurement": "bistability", "setting": "GFPmut3 expression [1]", "result": "did not exhibit bistability"}, {"measurement": "state after removal of IPTG", "setting": "GFPmut3 expression [1]; washed, diluted into fresh medium with no IPTG, additional 5 hours", "result": "returned to the low state"}]}, {"molecule": "pIKE107: Class 2 Type IV toggle switch plasmid (SEQ ID NO: 17), PLtetO-1, RBS1 C", "values": [{"measurement": "GFP EXPRESSION (bistable or monostable behaviour)", "setting": "GFPmut3 expression [1]", "result": "Bistable"}, {"measurement": "bistability", "setting": "GFPmut3 expression [1]", "result": "exhibited bistability"}]}, {"molecule": "pTAK117: Class 1 Type IV toggle switch plasmid (SEQ ID NO: 12), PLslcon, RBS1 D, lacI and cIts", "values": [{"measurement": "switching from low to high state complete", "setting": "GFPmut3 expression [2]; 2 mM IPTG induction", "result": "six"}, {"measurement": "switching from the high state to the low state completed", "setting": "GFPmut3 expression [2]; thermal induction at 41±1° C.", "result": "≤ 35", "unit": "min"}, {"measurement": "shape of IPTG induction curve", "setting": "GFPmut3 expression [3]", "result": "quasi-discontinuous jump to the high state"}, {"measurement": "IPTG concentration at which toggle exhibits quasi-discontinuous jump to the high expression state", "setting": "GFPmut3 expression [3]; initially in the low state", "result": 40, "unit": "µM"}, {"measurement": "long-term stability of the two states", "setting": "GFPmut3 expression [1]; 6 hours with or without 2 mM IPTG, then 22 hours with no inducer", "result": "remained in their initial high or low states for the entire 22 hour period"}, {"measurement": "GFP EXPRESSION (bistable or monostable behaviour)", "setting": "GFPmut3 expression [1]", "result": "Bistable"}]}, {"molecule": "pTAK130: Class 1 Type IV toggle switch plasmid (SEQ ID NO: 15), PLslcon, RBS1 G", "values": [{"measurement": "GFP EXPRESSION (bistable or monostable behaviour)", "setting": "GFPmut3 expression [1]", "result": "Bistable"}]}, {"molecule": "pTAK131: Class 1 Type IV toggle switch plasmid (SEQ ID NO: 13), PLslcon, RBS1 F", "values": [{"measurement": "GFP EXPRESSION (bistable or monostable behaviour)", "setting": "GFPmut3 expression [1]", "result": "Bistable"}]}, {"molecule": "pTAK132: Class 1 Type IV toggle switch plasmid (SEQ ID NO: 14), PLslcon, RBS1 H", "values": [{"measurement": "GFP EXPRESSION (bistable or monostable behaviour)", "setting": "GFPmut3 expression [1]", "result": "Bistable"}]}, {"molecule": "λ repressor (cI): bacteriophage λ repressor protein that represses the PL promoter", "values": [{"measurement": "repression of the PLSlcon-D promoter", "setting": "GFP expression", "result": "~6000", "unit": "fold"}, {"measurement": "Kd", "setting": "OL1-OL3", "result": "~1", "unit": "nM"}]}, {"molecule": "B1", "values": [{"measurement": "reduction of expression from hybrid LexA operator / HSV tk promoter", "setting": "[4]", "result": 10, "unit": "fold"}]}]}
